Results published in patent publication US20150374705A1, “Substances for treatment or relief of pain” (Shanghai Institues for Biological Sciences, priority 2012, published 2015).
Entries after “also recorded” stand apart in the source; their conditions may differ.

What was measured:
[1] = target: T1, Human recombinant GABAA receptor containing α3 subunit (α3, β3, γ2) (Homo sapiens, UniProt P18507+P34903); assay: Competitive radioligand binding ([3H]Ro-0151788) on membranes of 293 cells, Ki; settings: human recombinant GABAA subtype containing α3; read-out: Affinity, nM (α3)
T1 construct: expressed in transfected cells; host or cells: 293 cell line
Method: (§1) Different subunits of GABAA receptor were expressed in cell lines, including human kidney epithelial cell line, 293 cell line or L(tk−) cell line. The cells were cultured in medium, and such cells were used as the cellular model for screening drugs to suppress pain. a subunit, β subunit and γ subunit are indispensable for one complete functional GABAA receptor.
(§2) In this example, the inventors established the following cellular models:
(d) simultaneously expressing α3 subunit (for the protein sequence, see GenBank accession number NM_000808.3), β3 subunit and γ2 subunit in 293 cell line, forming the GABAA receptor containing α3 subunit;
(§3) Each of the (a) to (d) above could form a GABAA receptor with complete function.
(§4) Then, the cellular membrane was extracted and the protein concentration was measured. The competitive binding of the substances to be measured and radiolabelled compounds (e.g. 1 nM [^3H]Ro-0151788) were detected respectively to calculate the Ki value of the substances to be measured, see the method described in literature (Ballard T M et al., RO4938581, a novel cognitive enhancer acting at GABAA alpha5 subunit-containing receptors. Psychopharmacology (Berl). 2009 January; 202(1-3): 207-23). If the binding inhibition constant Ki (nM) of α5-GABAA receptor with the candidate substances in experimental group is less than the Ki of the receptor containing other a subunit (α1 subunit, α2 subunit or α3 subunit), then the candidate substance is a potential drugs for preventing, relieving or treating pain. Many methods can be used by those skilled in the art to evaluate the binding capacity of the ligand of α5-GABAA receptor to the α5-GABAA receptor, including but not limiting to the method above.

[2] = target: T2, Human recombinant GABAA receptor containing α1 subunit (Homo sapiens, UniProt P14867+P18507); assay: Electrophysiological inverse agonist efficacy on GABA-induced current; format: cell-based; settings: change of GABA-induced current; negative = inhibition
T2 construct: expressed in transfected cells; host or cells: 293 cell line
Method: as §1
(§5) (b) simultaneously expressing α1 subunit (GenBank accession number: NM_001127648.1), β3 subunit and γ2 subunit in 293 cell line, forming the GABAA receptor containing α1 subunit; • (c) simultaneously expressing α2 subunit (for the protein sequence, see GenBank accession number NM_000813.2), β3 subunit and γ2 subunit in 293 cell line, forming the GABAA receptor containing α2 subunit;
(§6) The inventors used electrophysiological methods to measure the inverse agonist efficacy of the substances to be measured, see the method described in literature (Ballard T M et al., RO4938581, a novel cognitive enhancer acting at GABAA alpha5 subunit-containing receptors. Psychopharmacology (Berl). 2009 January; 202 (1-3): 207-23). […] Many methods can be used by those skilled in the art to evaluate the binding capacity of the ligand of α5-GABAA receptor to the α5-GABAA receptor, including but not limiting to the method above.
(§7) Inverse agonist efficacy represents the inhibition percentage of the candidate substance on the current induced by GABA through α5-GABAA receptor=(the current intensity induced by GABA through α5-GABAA receptor with the existence of candidate substance−the current intensity induced by GABA through α5-GABAA receptor without the existence of candidate substance)/the current intensity induced by GABA through α5-GABAA receptor without the existence of candidate substance.

[3] = tested on: Human recombinant GABAA receptor containing α2 subunit; assay: as above; format: cell-based; settings: change of GABA-induced current; negative = inhibition
Method: as §1, §5, §6, §7

[4] = tested on: CFA induced inflammatory pain model rats (heat pain); assay: CFA induced inflammatory pain model, heat pain threshold; format: in vivo; settings: rat
[5] = target: T3, Human recombinant GABAA receptor containing α1 subunit (α1, β3, γ2) (Homo sapiens, UniProt P14867+P18507); assay: Competitive radioligand binding ([3H]Ro-0151788) on membranes of 293 cells, Ki; settings: human recombinant GABAA subtype containing α1; read-out: Affinity, nM (α1)
T3 construct: expressed in transfected cells; host or cells: 293 cell line
Method: as §1, §2, §5, §3, §4

[6] = target: T4, Human recombinant α5-GABAA receptor (Homo sapiens, UniProt P18507+P31644); assay: Electrophysiological inverse agonist efficacy on GABA-induced current; format: cell-based; settings: change of GABA-induced current; negative = inhibition
T4 construct: expressed in transfected cells; host or cells: 293 cell line
Method: as §1
(§8) (a) simultaneously expressing α5 subunit (for the protein sequence, see GenBank accession number NM_001165037.1), β3 subunit (for the protein sequence, see GenBank accession number NM_021912.4) and γ2 subunit (for the protein sequence, see GenBank accession number NM_198904.2) in 293 cell line, forming the GABAA receptor containing α5 subunit;
as §6, §7

[7] = target: T5, Human recombinant GABAA receptor containing α5 subunit (α5, β3, γ2) (Homo sapiens, UniProt P18507+P31644); assay: Competitive radioligand binding ([3H]Ro-0151788) on membranes of 293 cells, Ki; settings: human recombinant GABAA subtype containing α5; read-out: Affinity, nM (α5)
T5 construct: expressed in transfected cells; host or cells: 293 cell line
Method: as §1, §2, §8, §3, §4

In the case of `Cc1cc(-c2nnc3c4ccccc4c(OCC4=CC(C)C=N4)nn23)no1` (stereo not drawn) [α5IA], the Ki [1] is reported as 0.61 nM, the “Inverse agonist efficacy, % (α1)” value [2] is reported as −4% and the “Inverse agonist efficacy, % (α2)” value [3] is reported as 12%. For the same compound, the “Suppression of heat pain” value ([4]; 3 mg/kg intraperitoneal, 3 days after CFA, 0.5-3.0 hours after administration, listed as A5I, 3 mg/kg) was “efficiently inhibit inflammatory pain; also recorded: efficiently treat heat pain”, the Ki [5] was 0.88 nM and the “Inverse agonist efficacy, % (α5)” value [6] was −29%. For the same compound, the Ki [7] was 0.66 nM.

`Cn1ncnc1COc1nn2c(-c3cc(CO)on3)nncc2c1C(C)(C)C` [MRK016-M3, (3-(3-tert-butyl-2-((2-methyl-2H-1,2,4-triazol-3-yl)methoxy)pyrazolo [1,5-d][1,2,4]triazin-7-yl)isoxazol-5-yl)methanol] was tested, and the Ki [1] was 0.69 nM, the “Inverse agonist efficacy, % (α1)” value [2] was −11% and the “Inverse agonist efficacy, % (α2)” value [3] was −1%. The “Suppression of heat pain” value ([4]; oral administration, 3 days after CFA model, 1 hour after administration) was “significantly suppress inflammatory pain; also recorded: significantly suppressed pain”, the Ki [5] was 1.5 nM and the “Inverse agonist efficacy, % (α5)” value [6] was −52%. For the same compound, the Ki [7] was 1.1 nM.
